Data: publication PMC6156363, “The Modulatory Role of CYP3A4 in Dictamnine-Induced Hepatotoxicity” (Frontiers in Pharmacology, 2018)
Values joined by “and” are separate entries in the source; they are usually repeats but may differ in a detail not shown here. Equal entries are not always repeated. Values belong to the compound of their own block, whether it stands above or below them.

What was measured:
[1] = tested on: primary human hepatocytes (PHH); assay: MTT cytotoxicity in primary human hepatocytes, with or without KTZ or RIF pre-incubation; assay type: cell-based; conditions: 1 mM DCF
Method: All of the compounds were dissolved in DMSO with the final concentration of DMSO was less than 0.2% in the incubation system. The MTT assay was employed and the optical density (OD) value was measured at 490 nm with a microplate reader (BioTek Instruments, Winooski, VT, United States).

[2] = tested on: CYP3A4 OE HepG2 cells; assay: MTT cytotoxicity in stable CYP3A4 over-expressed HepG2 cells; assay type: cell-based, human; conditions: DCF 400–2000 μM
Method: (§1) Cells were allowed to grow in the selection medium for 4 weeks, at which time individual clonal expansions (clones) were visible. Each clone was transferred and tested for enzymatic activity by a quantitative polymerase chain reaction (Q-PCR), western blot analysis and determining hydroxylation of testosterone.
(§2) The neutral red assay was performed to assess cell viability of NIH3T3 cells. […] After incubation, the neutral red reagent was added following the manufacturer’s instruction. The OD value was detected at 570 nm. The WT and CYP3A4 OE HepG2 and L02 were treated in the same manner as NIH3T3 cells, and cell viability was measured by MTT assay. Cell viability was calculated with the following equation (Eq. 1). OD value is presented as the mean ± SD from three independent replicate experiments.
(§3) Cell viability (%) =[…]

[3] = tested on: CYP3A4 OE L02 cells; assay: MTT cytotoxicity in stable CYP3A4 over-expressed L02 cells; assay type: cell-based, human; conditions: DCF 400–2000 μM
Method: as §1, §2, §3

[4] = tested on: ICR mice; assay: Liver injury in mice, group A (DEX induction): liver/body weight, ALT, AST, H&E; assay type: in vivo; conditions: individual mouse, liver H&E
Method: (§4) Male adult ICR mice (20 ± 2 g) were supplied by the Model Animal Research Center of Nanjing University (Nanjing, China). All experiments and animal care were conducted in accordance with the Provision and General Recommendation of Chinese Experimental Animals Administration Legislation and were approved by the Science and Technology Department of Jiangsu Province [license number: SYXK (SU) 2016-0011]. The mice were housed in a controlled temperature and humidity of 22 ± 2°C and 55 ± 5%, respectively, and maintained on a 12 h light/dark cycle with free access to food and water. Mice were fastened for 12 h and free to water before treatment.
(§5) Mice were randomly assigned into two groups for different treatment. The protocol was conducted as previously described with minor modification ([Iida et al., 2015]; [Li W. et al., 2016]). […] Blood and liver tissues were collected in 24 h following treatment. All the livers were quickly removed and the left lateral liver lobes were used for histopathological examinations.
The collected blood samples were allowed to clot at room temperature, followed by centrifugation at 4°C, 1,000 × g for 10 min. […] The sections were stained with hematoxylin and eosin (H&E), and finally evaluated by a pathologist using an optical microscope.

[5] = tested on: ICR mice; assay: Liver injury in mice, group B (KTZ inhibition): liver/body weight, ALT, AST, H&E; assay type: in vivo; conditions: individual mouse, liver H&E
Method: as §4, §5
The collected blood samples were allowed to clot at room temperature, followed by centrifugation at 4°C, 1,000 × g for 10 min. The resulting sera were immediately sent for alanine transaminase (ALT) and aspartate aminotransferase (AST) assays to the laboratory in Jiangsu Province Hospital of Traditional Chinese and Western Medicine (Nanjing, China) on ice. The testing laboratory was authenticated with ISO15189 and the assay was performed in a Roche Cobas 8000 (ISE/701/701/502) automatic biochemical analyzer. Liver tissues were immediately fixed in 4% paraformaldehyde for at least 24 h, then paraffin-processed, and sectioned into 3-μm thick slices. The sections were stained with hematoxylin and eosin (H&E), and finally evaluated by a pathologist using an optical microscope.

[6] = tested on: CYP3A11; assay: Hepatic CYP3A11 expression in mice by Q-PCR and Western blot; assay type: in vivo, mouse; conditions: mice liver, KTZ 75 mg/kg i.p., vs control

SMILES: O=C(O)Cc1ccccc1Nc1c(Cl)cccc1Cl [DCF, diclofenac sodium]
- cell viability of PHH in the presence of KTZ ([1]; 24 h, KTZ 10 μM): remarkably increased
- cell viability of PHH pre-incubated with RIF ([1]; RIF 20 μM): significantly decreased
- cell viability in CYP3A4 OE HepG2 cells compared with WT cells [2]: greatly decreased
- cell viability in CYP3A4 OE L02 cells compared with WT cells [3]: greatly decreased

SMILES: C[C@@H]1C[C@H]2[C@@H]3CCC4=CC(=O)C=C[C@]4(C)[C@@]3(F)[C@@H](O)C[C@]2(C)[C@@]1(O)C(=O)CO [DEX, Dexamethasone]
- Congestion (histopathologic score) [4]: 1
- Scores (histopathologic, total) [4]: 0 and 1

- decrease in CYP3A11 expression [6]: about 20%
SMILES: CC(=O)N1CCN(c2ccc(OCC3COC(Cn4ccnc4)(c4ccc(Cl)cc4Cl)O3)cc2)CC1 (stereo not shown) [KTZ, ketoconazole]
- Inflammatory cells (histopathologic score) [5]: 0.5
- Scores (histopathologic, total) [5]: 0 and 0.5
- hepatocytes Degeneration (histopathologic score) [5]: 0.5
